We go through 19 compounds from PMC9542405, “Design, synthesis and antitumor activity of 5-trifluoromethylpyrimidine derivatives as EGFR inhibitors” (Journal of Enzyme Inhibition and Medicinal Chemistry, 2022).

In one series the target is T1, EGFR^wt-TK (Homo sapiens, UniProt P00533).
T1 construct: purchased
Briefly: In vitro EGFR^wt-TK assay (ELISA kit). Type of series: biochemical. To be noted: mean ± SD of three replicates; for inhibition at 1 µM: read-out: EGFR^wt-TK inhibition rate; for inhibition at 1 µM / EGFR^wt-TK inhibition rate: 1 μM. (An ELISA detects its analyte on a solid surface through an enzyme-linked reagent.)

The subject of another series is A549 cells. Briefly: In vitro activity against cancer cell lines (MTT), A549. In kind it is cell-based. To be noted: Homo sapiens, mean ± SD of three replicates.
A further series relates to PC-3 cells. Description: In vitro activity against cancer cell lines (MTT), PC-3. In kind it is cell-based. To be noted: Homo sapiens, mean ± SD of three replicates.
A further series has as its system MCF-7 cells. Briefly: In vitro activity against cancer cell lines (MTT), MCF-7. To be noted: Homo sapiens, MCF7, mean ± SD of three replicates. In kind it is cell-based.

T1 sequence (P00533 25-1210): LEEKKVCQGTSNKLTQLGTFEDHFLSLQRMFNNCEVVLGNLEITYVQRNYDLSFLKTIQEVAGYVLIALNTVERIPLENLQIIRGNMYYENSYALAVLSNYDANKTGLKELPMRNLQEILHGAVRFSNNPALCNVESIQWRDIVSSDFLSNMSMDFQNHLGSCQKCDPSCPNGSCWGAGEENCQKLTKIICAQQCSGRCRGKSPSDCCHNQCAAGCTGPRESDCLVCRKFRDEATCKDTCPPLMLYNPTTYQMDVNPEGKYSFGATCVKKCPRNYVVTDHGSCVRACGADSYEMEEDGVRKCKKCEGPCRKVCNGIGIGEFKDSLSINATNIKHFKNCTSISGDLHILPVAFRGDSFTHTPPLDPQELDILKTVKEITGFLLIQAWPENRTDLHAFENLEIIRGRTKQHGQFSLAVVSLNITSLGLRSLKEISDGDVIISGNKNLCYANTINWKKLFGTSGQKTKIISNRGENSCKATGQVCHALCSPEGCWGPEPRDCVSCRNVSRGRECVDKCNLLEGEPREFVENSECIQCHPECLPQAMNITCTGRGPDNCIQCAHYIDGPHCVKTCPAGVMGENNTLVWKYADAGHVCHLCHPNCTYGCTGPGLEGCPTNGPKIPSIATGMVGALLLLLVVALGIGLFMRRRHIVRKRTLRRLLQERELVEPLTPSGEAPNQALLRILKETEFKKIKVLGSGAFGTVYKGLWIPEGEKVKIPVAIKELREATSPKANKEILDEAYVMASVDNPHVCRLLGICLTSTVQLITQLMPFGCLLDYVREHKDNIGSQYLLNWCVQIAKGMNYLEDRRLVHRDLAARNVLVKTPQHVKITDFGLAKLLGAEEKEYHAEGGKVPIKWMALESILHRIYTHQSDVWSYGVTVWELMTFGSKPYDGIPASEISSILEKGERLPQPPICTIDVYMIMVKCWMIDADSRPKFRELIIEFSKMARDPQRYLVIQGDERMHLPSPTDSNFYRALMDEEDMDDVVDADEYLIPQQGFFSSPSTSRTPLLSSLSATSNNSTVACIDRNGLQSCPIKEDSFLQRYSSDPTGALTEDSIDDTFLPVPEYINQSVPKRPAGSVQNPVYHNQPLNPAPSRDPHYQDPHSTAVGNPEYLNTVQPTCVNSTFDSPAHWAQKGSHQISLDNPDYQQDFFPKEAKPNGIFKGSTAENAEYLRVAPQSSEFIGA
From the text for A549 cells: (§1) Co., Ltd. A549 (Human non-small-cell lung cancer cell line) cells, MCF-7 (Human breast cancer
(§2) cell line) cells, and PC-3 (Human prostate cancer cell line) cells. They were all purchased from the
(§3) Shanghai Cell Bank of the Chinese Academy of Sciences. NRK-52E (Normal rat kidney cell line)
(§4) cells donated by Guizhou Medicinal University were also used to evaluate the cytotoxicity.
Method for EGFR^wt-TK: The IC50 values of target compounds against EGFR^wt were calculated from the dose − response curve under Graph-Pad Prism 9, which was tested at the different concentrations.
From the text for MCF-7 cells: as §1, §2, §3, §4
From the text for PC-3 cells: as §1, §2, §3, §4

`CNC(=O)c1sccc1Nc1nc(Nc2ccc(NC(=O)c3ccccc3)cc2)ncc1C(F)(F)F` [Compound 9a, 3-[2-(4-Benzoylamino-phenylamino)-5-trifluoromethyl-pyrimidin-4-ylamino]-thiophene-2-carboxylic acid methylamide] yielded a melting point of 212.5 to 213.8 °C. The inhibition at 1 µM at EGFR^wt-TK worked out at 32.5 ± 2.56%. For the same compound, in the series with A549 cells, it took 8.51 ± 0.94 µM to reach half-maximal inhibition (IC50). For the same compound, the IC50 in the series on PC-3 cells was determined as 14.6 ± 0.83 µM. Further, the IC50 in the series with MCF-7 cells turned out to be 11.9 ± 1.36 µM.
Take `CNC(=O)c1sccc1Nc1nc(Nc2ccc(NC(=O)c3ccccc3F)cc2)ncc1C(F)(F)F` [Compound 9b, 3-{2-[4-(2-Fluoro-benzoylamino)-phenylamino]-5-trifluoromethyl-pyrimidin-4-ylamino}-thiophene-2-carboxylic acid methylamide]: the melting point lay within 213.3 to 215.4 °C. Besides, the inhibition at 1 µM on EGFR^wt-TK was 46.3 ± 1.85%. In the series with A549 cells, this compound registered an IC50 of 4.03 ± 0.47 µM. The IC50 with PC-3 cells is 11.2 ± 1.68 µM. The compound also gave an IC50 with MCF-7 cells of 6.05 ± 0.82 µM.
`CNC(=O)c1sccc1Nc1nc(Nc2ccc(NC(=O)c3cccc(F)c3)cc2)ncc1C(F)(F)F` [Compound 9c, 3-{2-[4–(3-Fluoro-benzoylamino)-phenylamino]-5-trifluoromethyl-pyrimidin-4-ylamino}-thiophene-2-carboxylic acid methylamide] came in with a melting point of 239.8 to 241.5 °C. Besides, at EGFR^wt-TK, the “EGFR^wt-TK inhibition rate” value is recorded as 55.48 ± 1.71%, the inhibition at 1 µM is above 50% and the IC50 was found to be 0.31 ± 0.095 µM. Besides, the IC50 in the series with A549 cells turned out to be 2.23 ± 0.42 µM. For the same compound, in the series with PC-3 cells, the IC50 worked out at 16.4 ± 2.27 µM. Also, in the series on MCF-7 cells, inhibition was half-maximal at 5.32 ± 0.74 µM (IC50).
Regarding `CNC(=O)c1sccc1Nc1nc(Nc2ccc(NC(=O)c3ccc(F)cc3)cc2)ncc1C(F)(F)F` [Compound 9d, 3-{2-[4-(4-Fluoro-benzoylamino)-phenylamino]-5-trifluoromethyl-pyrimidin-4-ylamino}-thiophene-2-carboxylic acid methylamide], the melting point fell in the range of 217.2 to 219.3 °C. Also, at EGFR^wt-TK, the inhibition at 1 µM came out at 49.38 ± 0.47%. In the series with A549 cells, this compound displayed an IC50 of 3.75 ± 0.55 µM. In addition, half-maximal inhibition with PC-3 cells (IC50) was put at 16.7 ± 1.53 µM.
`CNC(=O)c1sccc1Nc1nc(Nc2ccc(NC(=O)c3ccc(F)c(F)c3)cc2)ncc1C(F)(F)F` [Compound 9e, 3-{2-[4-(3,4-Difluoro-benzoylamino)-phenylamino]-5-trifluoromethyl-pyrimidin-4-ylamino}-thiophene-2-carboxylic acid methylamide] displayed a melting point of 218.9 to 219.7 °C. On EGFR^wt-TK, the “EGFR^wt-TK inhibition rate” value came to 54.49 ± 1.44%, the inhibition at 1 µM was above 50% and the IC50 came out at 0.44 ± 0.11 µM. In the series with A549 cells, this compound displayed an IC50 of 2.77 ± 0.59 µM. Also, half-maximal inhibition with PC-3 cells (IC50) required 17 ± 1.82 µM.
Compound `CNC(=O)c1sccc1Nc1nc(Nc2ccc(NC(=O)c3cccc(C(F)(F)F)c3)cc2)ncc1C(F)(F)F` [Compound 9f, 3-{5-Trifluoromethyl-2-[4-(3-trifluoromethyl-benzoylamino)-phenylamino]-pyrimidin-4-ylamino}-thiophene-2-carboxylic acid methylamide] came in with a melting point of 232 to 233.5 °C. Besides, the inhibition at 1 µM at EGFR^wt-TK amounted to 41.1 ± 1.79%. In the series on A549 cells, this compound came in with an IC50 of 5.13 ± 0.46 µM. Half-maximal inhibition in the series on PC-3 cells (IC50) was put at 12.2 ± 1.54 µM. Also, the IC50 in the series with MCF-7 cells is 6.54 ± 0.53 µM.
The matching figures for `CNC(=O)c1sccc1Nc1nc(Nc2ccc(NC(=O)c3ccc(OC)cc3)cc2)ncc1C(F)(F)F` [Compound 9g, 3-{2-[4-(4-Methoxy-benzoylamino)-phenylamino]-5-trifluoromethyl-pyrimidin-4-ylamino}-thiophene-2-carboxylic acid methylamide]: 229.4 to 230.6 °C, 28.8 ± 0.62%, 7.63 ± 0.62 µM, above 20 µM and 10.1 ± 1.18 µM.
In the case of `CNC(=O)c1sccc1Nc1nc(Nc2ccc(NC(=O)c3cc(OC)c(OC)c(OC)c3)cc2)ncc1C(F)(F)F` [Compound 9h, 3-{5-Trifluoromethyl-2-[4-(3,4,5-trimethoxy-benzoylamino)-phenylamino]-pyrimidin-4-ylamino}-thiophene-2-carboxylic acid methylamide], the melting point was in the range of 211.9 to 213.1 °C. Moreover, on EGFR^wt-TK, the “EGFR^wt-TK inhibition rate” value is given as 56.43 ± 0.51%, the inhibition at 1 µM was above 50% and inhibition was half-maximal at 0.35 ± 0.062 µM (IC50). In addition, the IC50 with A549 cells is 1.66 ± 0.54 µM. Further, in the series with PC-3 cells, the IC50 was 11.3 ± 1.42 µM. The compound also returned an IC50 in the series on MCF-7 cells of 3.37 ± 0.62 µM.
On to `CCC(=O)Nc1ccc(Nc2ncc(C(F)(F)F)c(Nc3ccsc3C(=O)NC)n2)cc1` [Compound 9i, 3-[2-(4-Propionylamino-phenylamino)-5-trifluoromethyl-pyrimidin-4-ylamino]-thiophene-2-carboxylic acid methylamide], for which the inhibition at 1 µM on EGFR^wt-TK worked out at 11.9 ± 0.35%. For the same compound, the IC50 with A549 cells is 17.8 ± 1.67 µM; in the series on PC-3 cells it was above 20 µM; in the series with MCF-7 cells, above 20 µM.
For the compound `CNC(=O)c1sccc1Nc1nc(Nc2ccc(NC(=O)C(C)C)cc2)ncc1C(F)(F)F` [Compound 9j, 3-[2-(4-Isobutyrylamino-phenylamino)-5-trifluoromethyl-pyrimidin-4-ylamino]-thiophene-2-carboxylic acid methylamide], the inhibition at 1 µM at EGFR^wt-TK was 8.76 ± 0.68%. The IC50 in the series on A549 cells, with PC-3 cells and with MCF-7 cells was above 20 µM each time.
Regarding `C#CC(=O)Nc1ccc(Nc2ncc(C(F)(F)F)c(Nc3ccsc3C(=O)NC)n2)cc1` [Compound 9k, 3-[2-(4-Propynoylamino-phenylamino)-5-trifluoromethyl-pyrimidin-4-ylamino]-thiophene-2-carboxylic acid methylamide], the “EGFR^wt-TK inhibition rate” value on EGFR^wt-TK was determined as 55.73 ± 2.14%. For the same compound, the inhibition at 1 µM at EGFR^wt-TK was above 50%. For the same compound, the IC50 stood at 0.48 ± 0.073 µM against EGFR^wt-TK, 1.82 ± 0.49 µM in the series with A549 cells, 15.4 ± 2.38 µM in the series on PC-3 cells and 4.91 ± 0.83 µM in the series on MCF-7 cells.
As for `CNC(=O)c1sccc1Nc1nc(Nc2ccc(NC(=O)C3CC3)cc2)ncc1C(F)(F)F` [Compound 9l, 3-{2-[4-(Cyclopropanecarbonyl-amino)-phenylamino]-5-trifluoromethyl-pyrimidin-4-ylamino}-thiophene-2-carboxylic acid methylamide], the melting point is above 250 °C. Besides, the inhibition at 1 µM at EGFR^wt-TK was found to be 12.6 ± 1.07%. The same compound yielded an IC50 in the series on A549 cells of 16.5 ± 2.31 µM. In the series on PC-3 cells, this compound yielded an IC50 above 20 µM. Besides, the IC50 in the series with MCF-7 cells is above 20 µM.
As for `CNC(=O)c1sccc1Nc1nc(Nc2ccc(NC(=O)C3CCC3)cc2)ncc1C(F)(F)F` [Compound 9m, 3-{2-[4-(Cyclobutanecarbonyl-amino)-phenylamino]-5-trifluoromethyl-pyrimidin-4-ylamino}-thiophene-2-carboxylic acid methylamide], the melting point lay within 236.1 to 236.4 °C. For the same compound, the inhibition at 1 µM on EGFR^wt-TK amounted to 13.3 ± 0.83%. Moreover, in the series with A549 cells, the midpoint of inhibition, the IC50, lay at 15.1 ± 2.29 µM. The IC50 with PC-3 cells was above 20 µM. In the series with MCF-7 cells, this compound returned an IC50 above 20 µM.
`CNC(=O)c1sccc1Nc1nc(Nc2ccc(NC(=O)C3CCCC3)cc2)ncc1C(F)(F)F` [Compound 9n, 3-{2-[4-(Cyclopentanecarbonyl-amino)-phenylamino]-5-trifluoromethyl-pyrimidin-4-ylamino}-thiophene-2-carboxylic acid methylamide] came in with a melting point of 246.4 to 247.2 °C. For the same compound, on EGFR^wt-TK, the inhibition at 1 µM is 18.9 ± 1.14%. This compound also registered an IC50 with A549 cells of 13.8 ± 1.57 µM. The same compound yielded a half-inhibitory concentration (IC50) in the series with PC-3 cells above 20 µM. The IC50 with MCF-7 cells is above 20 µM.
In turn, `CNC(=O)c1sccc1Nc1nc(Nc2ccc(NC(=O)C3CCCCC3)cc2)ncc1C(F)(F)F` [Compound 9o, 3-{2-[4-(Cyclohexanecarbonyl-amino)-phenylamino]-5-trifluoromethyl-pyrimidin-4-ylamino}-thiophene-2-carboxylic acid methylamide] returned a melting point of 246.7 to 248.2 °C. The inhibition at 1 µM on EGFR^wt-TK came out at 26.6 ± 1.38%. Besides, the IC50 with A549 cells came out at 8.49 ± 0.63 µM. In addition, in the series on PC-3 cells, the IC50 is above 20 µM. The same compound registered an IC50 in the series on MCF-7 cells of 13.5 ± 1.24 µM.
The corresponding values for `CNC(=O)c1sccc1Nc1nc(Nc2ccc(NC(=O)C3CCOCC3)cc2)ncc1C(F)(F)F` [Compound 9p, Tetrahydro-pyran-4-carboxylicacid{4-[4-(2-methylcarbamoyl-thiophen-3-ylamino)-5-trifluoromethyl-pyrimidin-2-ylamino]-phenyl}-amide] are 232.3 to 233.8 °C, 36.46 ± 0.23%, 7.28 ± 0.47 µM, above 20 µM and 10 ± 0.96 µM.
Consider `CNC(=O)c1sccc1Nc1nc(Nc2ccc(NC(=O)C3CCC(=O)CC3)cc2)ncc1C(F)(F)F` [Compound 9q, N-Methyl-3-((2-((4-(4-oxocyclohexane-1-carboxamido)phenyl)amino)-5-(trifluoromethyl)pyrimidin-4-yl)amino)thiophene-2-carboxamide], for which the inhibition at 1 µM on EGFR^wt-TK was determined as 35.5 ± 0.89%. For the same compound, the results for the IC50 in the series with A549 cells, with PC-3 cells and in the series on MCF-7 cells were 7.65 ± 0.39 µM, above 20 µM and 10.6 ± 1.58 µM, respectively.
As for `CNC(=O)c1sccc1Nc1nc(Nc2ccc(NC(=O)C3CCN(C)CC3)cc2)ncc1C(F)(F)F` [Compound 9r, 1-Methyl-piperidine-4-carboxylicacid{4-[4-(2-methylcarbamoyl-thiophen-3-ylamino)-5-trifluoromethyl-pyrimidin-2-ylamino]-phenyl}-amide], the melting point was in the range of 210.8 to 211.6 °C. Also, the inhibition at 1 µM at EGFR^wt-TK came to 33 ± 0.57%. The compound further had an IC50 with A549 cells of 8.41 ± 0.92 µM. Further, the IC50 with PC-3 cells is above 20 µM. Besides, the IC50 in the series on MCF-7 cells is 11.2 ± 1.47 µM.
The matching figures for `CNC(=O)c1sccc1Nc1nc(Nc2ccc(NC(=O)C3CCN(C(C)=O)CC3)cc2)ncc1C(F)(F)F` [Compound 9s, 1-Acetyl-piperidine-4-carboxylicacid{4-[4-(2-methylcarbamoyl-thiophen-3-ylamino)-5-trifluoromethyl-pyrimidin-2-ylamino]-phenyl}-amide]: above 250 °C, 37.1 ± 0.46%, 6.92 ± 0.38 µM, above 20 µM and 9.75 ± 0.85 µM.

By inhibition is commonly meant the share of the control response that was lost under treatment. Usually IC50 stands for the midpoint of a concentration-inhibition curve. Read a low IC50 as inhibition by little substance. A word on the melting point: it is the temperature of the solid-liquid transition.
